Measurements: patent US20160038526A1, “TREATMENT OF PROSTATE CANCER” (THOMAS JEFFERSON UNIVERSITY, priority 2012, published 2016)

Key:
Stat5a = biological target: T1, Stat5a (Homo sapiens, UniProt P42229); assay: Stat5 dimerization assay (FLAG-/MYC-tagged Stat5a co-immunoprecipitation) in PC-3 cells; type: cell-based; parameters: expressed in transfected cells; host or cells: PC-3; conditions: 2 hours pretreatment, hPrl 10 nM 30 minutes
T1 sequence (P42229 1-794): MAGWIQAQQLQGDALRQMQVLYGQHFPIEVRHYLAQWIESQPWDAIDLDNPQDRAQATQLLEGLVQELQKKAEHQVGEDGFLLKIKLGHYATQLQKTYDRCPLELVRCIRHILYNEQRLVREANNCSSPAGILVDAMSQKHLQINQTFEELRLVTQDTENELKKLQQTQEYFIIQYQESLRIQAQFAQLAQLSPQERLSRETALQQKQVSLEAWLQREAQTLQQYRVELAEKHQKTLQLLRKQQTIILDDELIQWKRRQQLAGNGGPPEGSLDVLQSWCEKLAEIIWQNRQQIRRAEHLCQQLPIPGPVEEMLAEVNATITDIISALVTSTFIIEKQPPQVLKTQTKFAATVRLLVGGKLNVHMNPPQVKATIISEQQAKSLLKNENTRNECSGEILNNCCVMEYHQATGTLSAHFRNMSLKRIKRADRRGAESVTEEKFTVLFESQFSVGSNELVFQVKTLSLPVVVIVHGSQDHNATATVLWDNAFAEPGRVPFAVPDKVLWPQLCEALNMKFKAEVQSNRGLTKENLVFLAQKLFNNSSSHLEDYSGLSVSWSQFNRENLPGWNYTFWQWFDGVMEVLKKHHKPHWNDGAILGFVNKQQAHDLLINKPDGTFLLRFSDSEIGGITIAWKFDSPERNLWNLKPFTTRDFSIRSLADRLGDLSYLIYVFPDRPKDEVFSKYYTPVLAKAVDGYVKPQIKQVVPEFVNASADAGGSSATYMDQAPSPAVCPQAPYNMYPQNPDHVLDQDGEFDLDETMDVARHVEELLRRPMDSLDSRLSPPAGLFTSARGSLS
Experimental: FLAG-tagged Stat5a and MYC-tagged Stat5a were generated as follows. Plasmid pCMV3-FLAG-Stat5a, pCMV3-MYC-Stat5a and pPrlR were co-transfected using FuGENE6 (Roche) into PC-3 cells (2 μg of each plasmid per 1×10^7 cells). The cells were starved for 20 hours, pretreated with N6BAP for 2 hours, then stimulated with hPrl (10 nM) in RPMI 1640 without serum for 30 minutes. The cell lysates were immunoprecipitated with 25 μl anti-FLAG M2 […] affinity gel (2 μg/ml, Sigma), anti-MYC pAb (1 μg/ml, Upstate) or normal rabbit serum (NRS). The primary antibodies were used in the immunoblottings at the following concentrations: anti-FLAG pAb (1:1000; Stratagene), anti-MYC mAb (1:1000; Sigma), anti-Stat5a/b mAb (1:250) (Transduction Laboratories) detected by horseradish peroxidase-conjugated secondary antibodies.
Lanes 1, 2, 4, 6, 8, 10, 12, 14 and 16 represent cells stimulated with human prolactin (Prl) for 30 minutes which induces dimerization of Stat5. Two hours prior to Prl-stimulation, the cells had been treated with DMSO (lanes 1-4), the control compound C5 (lanes 5 and 6) or N6BAP (lanes 7-16) to test whether the Stat5a/b-inhibitor compound, N6BAP, would be able to inhibit dimerization of Stat5. […] It should be noted the drug effect in this study was not due to cell apoptosis induction, as the treatment time was only 2 hours. […]

CWR22Rv1 xenograft tumor = assay: CWR22Rv1 human prostate tumor xenograft in nude mice: tumor growth, viable cells, TUNEL; type: in vivo; conditions: nude mice, 25, 50 or 100 mg/kg intraperitoneal daily for 10 days
Experimental: 1.5×10^7 CWR22Rv1 cells in 0.1 ml RPMI 1640 medium were mixed with 0.1 ml of Matrigel (BD Bioscience, Palo Alto, Calif.), and were inoculated subcutaneously (s.c.) into one flank per mouse. Established tumors were randomly distributed into five groups (ten mice for each group) with similar average size. N6BAP was dissolved in 0.3% hydroxycellulose (HPC). Mice were treated daily for 10 days by intraperitoneal injection with 0.2 ml of N6BAP at 25 mg/kg, 50 mg/kg or 100 mg/kg body weight, or with 0.2 ml 0.3% HPC solution, or no treatment for control. Tumor sizes were measured three times per week. Tumor volumes were calculated using the following formula: 3.14×length×width×depth/6. Tumor growth rates were calculated, and percent changes in tumor volume of each group were presented. […] Individual tumors are represented as columns.
Tumor sections were hematoxylin-eosin stained to assess the loss of viable tumor cells. The results are shown in FIG. 12A, showing the loss of live epithelial cells with the […] N6BAP-treated CWR22Rv1 xenograft tumors vs. controls.
In situ end labeling of fragmented DNA was carried out according to the terminal deoxyribonucleotidyl transferse (TdT)-mediated biotin-16-dUTP nick-end labeling (TUNEL) assay to determine that cells within the CWR22Rv1 tumors were undergoing apoptosis. The assay was performed according to the In situ Cell Death Detection Kit from Roche Applied Science. Briefly, rehydrated deparaffinated tissue sections from the xenograft tumors were treated by Proteinase K followed by 3% H2O2 at room temperature. […] Nucleotides incorporated into fragmented DNA were detected after incubation with anti-fluorescein antibody conjugated with peroxidase followed by visualization with 3,3-diaminobenzidine as a chromogen and methyl green as a counterstain. […] Cell viability indexes were determined by counting alive cells per total number of cells per view established in the no treatment group. TUNEL indexes were determined by counting epithelial cells with TUNEL-positive cells per total number of epithelial cells per view. […]

Structure (SMILES): O=P(O)(O)OC[C@H]1O[C@@H](n2cnc3c(NCc4ccccc4)ncnc32)[C@H](O)[C@@H]1O [N6BAP, N^6-benzyladenosine-5′-monophosphate]
- dimerization of Stat5a (Stat5a): effectively inhibited Stat5a dimerization
- apoptotic epithelial cells in tumor xenografts (TUNEL) (CWR22Rv1 xenograft tumor): increased apoptotic epithelial cells
- live epithelial cells in tumor xenografts (hematoxylin-eosin staining) (CWR22Rv1 xenograft tumor): decreased the number of live epithelial cells
- xenograft tumor growth (tumor volume) (CWR22Rv1 xenograft tumor): inhibited the growth of the xenograft tumor in a dose-dependent manner
